Results published in patent US7192924B2, “Corticotropin releasing factor 2 receptor agonists” (priority 2002, dated 2007).
Peptide text beside a SMILES is read from it.

Tests used:
CRF1R = molecular target: T1, CRF1R (Homo sapiens, UniProt P34998); test: CRF1R agonist activity (EC50, Emax), called comparative CRF binding; type: cell-based; details: read-out: CRF1R EC50
T1 sequence (P34998 24-415): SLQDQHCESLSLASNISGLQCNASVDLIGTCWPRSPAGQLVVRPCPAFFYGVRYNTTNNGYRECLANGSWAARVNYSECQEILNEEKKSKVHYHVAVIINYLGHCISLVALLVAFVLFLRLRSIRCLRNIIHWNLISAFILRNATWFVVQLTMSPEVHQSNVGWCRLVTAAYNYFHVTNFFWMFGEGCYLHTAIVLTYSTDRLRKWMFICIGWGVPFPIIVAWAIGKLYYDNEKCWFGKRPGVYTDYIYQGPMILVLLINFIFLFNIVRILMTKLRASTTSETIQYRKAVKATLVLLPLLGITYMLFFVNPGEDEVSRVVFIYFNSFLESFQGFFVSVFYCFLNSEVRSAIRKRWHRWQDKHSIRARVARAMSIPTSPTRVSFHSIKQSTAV
From the text: (§1) The pharmacological activity and selectivity of the peptides of present invention can be determined using published test procedures. See, e.g, U.S. patent application Ser. No. 09/799,978. Because CRF2R and CRF1R are homologous proteins, it is expected that a certain proportion of agonists for CRF2R will also function as agonists of CRF1R. As discussed above, activation of CRF1R induces activation of the HPA axis since increased corticosteroid production leads to skeletal muscle atrophy. In most cases in which an increase in muscle mass or function is desired, it is not desirable to activate the HPA axis.
(§2) Because it is desirable to discriminate binding between CRF2R, as compared with CRF1R, the assays described above may be conducted using a cell, or membrane from a cell, which expresses only CRF2R or the assays can be conducted with a recombinant source of CRF2R. Cells expressing both forms of CRFR may be modified using homologous recombination to inactivate or otherwise disable the CRF1R gene. Alternatively, if the source of CRFR contains more than one CRFR type, the background signal produced by the receptor which is not of interest must be subtracted from the signal obtained in the assay. […] Known antagonists of CRFRs include, but, are not limited to, antalarmin (CRF1R selective), antisauvagine-30 (CRF2R selective) and astressin (nonselective for CRF1R/CRF2R).
(§3) Cell-based assays include the steps of contacting cells which express CRF1R or CRF2R with a peptide of the present invention or control and measuring activation of the CRFR by measuring the expression or activity of components of the CRFR signal transduction pathways.
(§4) As described in the background section above, CRFRs appear to couple through several different pathways including Gαs, Gαq or Gαi, depending upon the cell type. It is thought that agonist activation of CRFR allows the receptor to signal via any of these pathways, provided that the necessary pathway components are present in the particular cell type. Thus, to assay a particular peptide of the present invention for CRFR activation, an assay can use any of the signal transduction pathways as the readout even if the relevant cell type for treatment, in vivo, couples CRFR to skeletal muscle atrophy via a different pathway. […] Assays for measuring activation of these signaling pathways are known in the art.
(§5) For example, after contact with a peptide of the present invention, lysates of the cells can be prepared and assayed for induction of cAMP. cAMP is induced in response to Gαs activation. Because Gαs is activated by receptors other than CRFR and because a test peptide may be exerting its effect through CRFRs or by another mechanism, two control comparisons are relevant for determining whether the peptide increases levels of cAMP via activation of a CRFR. One control compares the cAMP level of cells contacted with the peptide and the cAMP level of cells contacted with a control compound (i.e., the vehicle in which the peptide is dissolved).
(§6) In one example, cAMP induction is measured with the use of DNA constructs containing the cAMP responsive element linked to any of a variety of reporter genes can be introduced into cells expressing CRFRs. Such reporter genes include, but are not limited to, chloramphenicol acetyltransferase (CAT), luciferase, glucuronide synthetase, growth hormone, fluorescent proteins (e.g., Green Fluorescent Protein), or alkaline phosphatase. Following exposure of the cells to the peptide, the level of reporter gene expression can be quantitated to determine the peptide's ability to increase cAMP levels and thus determine the peptide's ability to activate the CRFR.
(§7) In addition to using cells expressing full length CRFRs, cells can be engineered which express CRFRs containing the ligand binding domain of the receptor coupled to, or physically modified to contain, reporter elements or to interact with signaling proteins.

CRF2R = molecular target: T2, CRF2R (Homo sapiens, UniProt Q13324); test: CRF2R agonist activity (EC50, Emax), called comparative CRF binding; type: cell-based; details: read-out: CRF2R EC50
T2 sequence (Q13324 1-411): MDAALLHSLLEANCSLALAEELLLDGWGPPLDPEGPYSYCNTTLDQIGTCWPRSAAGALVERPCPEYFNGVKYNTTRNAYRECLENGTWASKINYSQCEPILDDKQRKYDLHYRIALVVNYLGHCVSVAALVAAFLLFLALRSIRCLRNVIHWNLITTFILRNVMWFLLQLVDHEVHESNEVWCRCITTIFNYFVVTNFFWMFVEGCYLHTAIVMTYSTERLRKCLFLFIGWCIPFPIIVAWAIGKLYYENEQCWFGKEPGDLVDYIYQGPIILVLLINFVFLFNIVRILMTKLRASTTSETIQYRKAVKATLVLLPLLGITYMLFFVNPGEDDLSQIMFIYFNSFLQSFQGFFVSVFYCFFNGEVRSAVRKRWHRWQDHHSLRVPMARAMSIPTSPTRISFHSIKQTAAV
From the text: as §1, §2, §3, §4, §5, §6, §7

| Structure (SMILES) | EC50 (CRF1R) [nM] | EC50 (CRF2R) [nM] |
| --- | --- | --- |
| CC[C@H](C)[C@H](N)C(=O)N[C@H](C(=O)N[C@@H](CC(C)C)C(=O)N[C@@H](CO)C(=O)N[C@@H](CC(C)C)C(=O)N[C@@H](CC(=O)O)C(=O)N[C@H](C(=O)N1CCC[C@H]1C(=O)N[C@H](C(=O)NCC(=O)N[C@@H](CC(C)C)C(=O)N[C@@H](CC(C)C)C(=O)N[C@@H](CCC(N)=O)C(=O)N[C@H](C(=O)N[C@@H](CC(C)C)C(=O)N[C@@H](CC(C)C)C(=O)N[C@@H](CCC(=O)O)C(=O)N[C@@H](CCC(N)=O)C(=O)N[C@@H](CCC(=O)O)C(=O)N[C@@H](CCCCN)C(=O)N[C@@H](C)C(=O)N[C@@H](CCCNC(=N)N)C(=O)N[C@@H](C)C(=O)N[C@@H](C)C(=O)N[C@@H](CCCNC(=N)N)C(=O)N[C@@H](CCC(=O)O)C(=O)N[C@@H](CCC(N)=O)C(=O)N[C@@H](C)C(=O)N[C@H](C(=O)N[C@H](C(=O)N[C@@H](CC(N)=O)C(=O)N[C@@H](C)C(=O)N[C@@H](CCCNC(=N)N)C(=O)N[C@H](C(=O)N[C@@H](CC(C)C)C(=O)N[C@@H](C)C(=O)N[C@@H](CCCNC(=N)N)C(=O)N[C@H](C(N)=O)C(C)C)[C@@H](C)CC)[C@@H](C)O)[C@@H](C)O)[C@@H](C)CC)[C@@H](C)CC)C(C)C)C(C)C [compound 107] (H-IVLSLDVPIGLLQILLEQEKARAAREQATTNARILARV-NH2) | ≥ 1000 |  |
| CC[C@H](C)[C@H](N)C(=O)N[C@H](C(=O)N[C@@H](CC(C)C)C(=O)N[C@@H](CO)C(=O)N[C@@H](CC(C)C)C(=O)N[C@@H](CC(=O)O)C(=O)N[C@H](C(=O)N1CCC[C@H]1C(=O)N[C@H](C(=O)NCC(=O)N[C@@H](CC(C)C)C(=O)N[C@@H](CC(C)C)C(=O)N[C@@H](CCC(N)=O)C(=O)N[C@H](C(=O)N[C@@H](CC(C)C)C(=O)N[C@@H](CC(C)C)C(=O)N[C@@H](CCC(=O)O)C(=O)N[C@@H](CCC(N)=O)C(=O)N[C@@H](CCC(=O)O)C(=O)N[C@@H](CCCCN)C(=O)N[C@@H](C)C(=O)N[C@@H](CCCNC(=N)N)C(=O)N[C@@H](C)C(=O)N[C@@H](C)C(=O)N[C@@H](CCCNC(=N)N)C(=O)N[C@@H](CCC(=O)O)C(=O)N[C@@H](CCC(N)=O)C(=O)N[C@@H](C)C(=O)N[C@H](C(=O)N[C@H](C(=O)N[C@@H](CC(N)=O)C(=O)N[C@@H](C)C(=O)N[C@@H](CCCNC(=N)N)C(=O)N[C@H](C(=O)N[C@@H](CC(C)C)C(=O)N[C@@H](C)C(=O)N[C@@H](CCCNC(=N)N)C(=O)N[C@H](C(N)=O)C(C)C)[C@@H](C)CC)[C@@H](C)O)[C@@H](C)O)[C@@H](C)CC)[C@@H](C)CC)C(C)C)C(C)C [compound 325] (H-IVLSLDVPIGLLQILLEQEKARAAREQATTNARILARV-NH2) |  | 11.7 |
| CC[C@H](C)[C@H](NC(=O)[C@H](C)NC(=O)[C@H](CC(N)=O)NC(=O)[C@H](CCC(N)=O)NC(=O)[C@H](CCC(=O)O)NC(=O)[C@H](C)NC(=O)[C@H](CCCNC(=N)N)NC(=O)[C@H](CCC(=O)O)NC(=O)[C@H](CCCNC(=N)N)NC(=O)[C@H](CCC(N)=O)NC(=O)[C@H](CO)NC(=O)[C@H](CCC(N)=O)NC(=O)[C@@H](NC(=O)[C@H](CCCCN)NC(=O)[C@H](CCC(=O)O)NC(=O)[C@H](CC(C)C)NC(=O)[C@H](CCC(=O)O)NC(=O)[C@H](CC(C)C)NC(=O)[C@H](CC(C)C)NC(=O)[C@@H](NC(=O)[C@H](CCCNC(=N)N)NC(=O)[C@H](CC(C)C)NC(=O)[C@H](CC(C)C)NC(=O)[C@H](CC(C)C)NC(=O)[C@H](CC(C)C)NC(=O)[C@@H]1CCCN1C(=O)[C@H](CC(C)C)NC(=O)[C@H](CC(=O)O)NC(=O)[C@@H](NC(=O)[C@H](CO)NC(=O)[C@H](CC(C)C)NC(=O)[C@H](CO)NC(=O)[C@@H]1CCCN1C(=O)[C@H](CC(N)=O)NC(=O)[C@@H](N)CC(=O)O)[C@@H](C)CC)[C@@H](C)O)[C@@H](C)O)C(=O)N[C@H](C(=O)N[C@@H](Cc1ccccc1)C(=O)N[C@@H](C)C(=O)N[C@@H](CO)C(=O)N[C@H](C(N)=O)C(C)C)[C@@H](C)CC [compound 346] (H-DNPSLSIDLPLLLLRTLLELEKTQSQRERAEQNAIIFASV-NH2) |  | 8.48 |
| CC[C@H](C)[C@H](NC(=O)[C@H](C)NC(=O)[C@H](CC(N)=O)NC(=O)[C@H](CCC(N)=O)NC(=O)[C@H](CCC(=O)O)NC(=O)[C@H](C)NC(=O)[C@H](CCCNC(=N)N)NC(=O)[C@H](CCC(=O)O)NC(=O)[C@H](CCCNC(=N)N)NC(=O)[C@H](CCC(N)=O)NC(=O)[C@H](CO)NC(=O)[C@H](CCC(N)=O)NC(=O)[C@@H](NC(=O)[C@H](CCCCN)NC(=O)[C@H](CCC(=O)O)NC(=O)[C@H](CC(C)C)NC(=O)[C@H](CCC(=O)O)NC(=O)[C@H](CC(C)C)NC(=O)[C@H](CC(C)C)NC(=O)[C@@H](NC(=O)[C@H](CCCNC(=N)N)NC(=O)[C@H](CC(C)C)NC(=O)[C@H](CC(C)C)NC(=O)[C@H](CC(C)C)NC(=O)[C@H](CC(C)C)NC(=O)[C@@H]1CCCN1C(=O)[C@H](CC(C)C)NC(=O)[C@H](CC(=O)O)NC(=O)[C@@H](NC(=O)[C@H](CO)NC(=O)[C@H](CC(C)C)NC(=O)[C@H](CO)NC(=O)[C@@H]1CCCN1)[C@@H](C)CC)[C@@H](C)O)[C@@H](C)O)C(=O)N[C@H](C(=O)N[C@@H](Cc1ccccc1)C(=O)N[C@@H](C)C(=O)N[C@@H](CO)C(=O)N[C@H](C(N)=O)C(C)C)[C@@H](C)CC [compound 348] (H-PSLSIDLPLLLLRTLLELEKTQSQRERAEQNAIIFASV-NH2) |  | 5.77 |
| CC[C@H](C)[C@H](N)C(=O)N[C@H](C(=O)N[C@@H](CC(C)C)C(=O)N[C@@H](CO)C(=O)N[C@@H](CC(C)C)C(=O)N[C@@H](CC(=O)O)C(=O)N[C@H](C(=O)N1CCC[C@H]1C(=O)N[C@H](C(=O)NCC(=O)N[C@@H](CC(C)C)C(=O)N[C@@H](CC(C)C)C(=O)N[C@@H](CCC(N)=O)C(=O)N[C@H](C(=O)N[C@@H](CC(C)C)C(=O)N[C@@H](CC(C)C)C(=O)N[C@@H](CCC(=O)O)C(=O)N[C@@H](CCC(N)=O)C(=O)N[C@@H](C)C(=O)N[C@@H](CCCNC(=N)N)C(=O)N[C@@H](C)C(=O)N[C@@H](CCCNC(=N)N)C(=O)N[C@@H](C)C(=O)N[C@@H](C)C(=O)N[C@@H](CCCNC(=N)N)C(=O)N[C@@H](CCC(=O)O)C(=O)N[C@@H](CCC(N)=O)C(=O)N[C@@H](C)C(=O)N[C@H](C(=O)N[C@H](C(=O)N[C@@H](CC(N)=O)C(=O)N[C@@H](C)C(=O)N[C@@H](CCCNC(=N)N)C(=O)N[C@H](C(=O)N[C@@H](CC(C)C)C(=O)N[C@@H](C)C(=O)N[C@@H](CCCNC(=N)N)C(=O)N[C@H](C(=O)N[C@@H](CCSC)C(N)=O)C(C)C)[C@@H](C)CC)[C@@H](C)O)[C@@H](C)O)[C@@H](C)CC)[C@@H](C)CC)C(C)C)C(C)C [compound 356] (H-IVLSLDVPIGLLQILLEQARARAAREQATTNARILARVM-NH2; N-terminus assumed) |  | 83 |
